From US20040235890A1, “Remedies for allergic diseases” (priority 2001, published 2004)
“Also recorded” adds a separate entry of the source. Counter-ions that a name gives are not always drawn.

Legend:
[1] = test system: Allergic rhinitis model; assay: Allergic rhinitis model (ovalbumin-sensitised guinea pig, pituita weight); format: in vivo; conditions: 0.01%, 0.1% and 1.0% solution, 40 uL nasally into both sides, 10 min before 1% ovalbumin; male Crj Hartley guinea pig; monohydrochloride salt
Experimental: Allergic rhinitis model was produced by administration of ovalbumin to male Crj Hartley guinea pig (6 weeks old) in the procedure shown in table 1.
At day 42, guinea pigs were inserted with tube into the trachea under anesthesia and kept the heat using heat pat. Forty micro liter of (+)-trans-3-imino-5-methyl-7-chloro-2-azabicyclo[4.1.0]heptane monohydrochloride salt (referred to as “compound A”) or physiological saline was administered nasally into both sides. Ten minutes later, 40 uL of 1% ovalbumin was administered nasally into both sides. Thirty minutes after ovalbumin administration, moisture in the nose was removed with absorbent cotton. Fifteen minutes later, absorbent cotton of which weight was measured was inserted into nose for 15 minutes. Pituita weight was calculated by the difference in weight between pre and post insertion.

[2] = test system: NOS; conditions: cited from earlier work

Compound | Pituita weight (suppression as compared to control, physiological saline) [1] | increase in NO production and vascular permeability in allergic conjunctivitis ([2]; Cornea, 19(1), 84-91 (2000)) | prostaglandin E2 production in acute phase of allergic conjunctivitis ([2]; Prostaglandins, 52(6), 431-446 (1996)) | effect on allergic conjunctivitis ([2]; in vivo)
C[C@H]1CC(=N)N[C@@H]2[C@H](Cl)[C@@H]21 (relative stereo) [compound A, (+)-trans-3-imino-5-methyl-7-chloro-2-azabicyclo[4.1.0]heptane monohydrochloride salt] | suppresses pituita weight in dose dependent manner; also recorded: noticeably suppresses pituita weights | – | – | –
COC(=O)[C@@H](N)CCCNC(=N)N[N+](=O)[O-] [L-NAME, N-ω-nitro-L-arginine methylester] | – | suppressed | suppresses prostaglandin E2 production | the action is weak
